Reference: article PMC6756013, “B591, a novel specific pan-PI3K inhibitor, preferentially targets cancer stem cells” (Oncogene, 2019)

Experiments:
MDA-MB-231 cells = assay: Cell cycle analysis; assay type: cell-based, human; settings: 24 h
Experimental: MDA-MB-231 cells were seeded in six-well plates at a density of 4×10^5 cells per well. The next day, cells were treated with B591 (0, 2.5, 5, 10 μM) for 24 h. Then the cells were trypsinized, centrifuged at 300 g for 5 minutes and fixed in 1 ml of 70 % cold ethanol. After incubation at -20℃ overnight, the cells were collected by centrifugation at 500 g for 5 min and pellets were resuspended in 500 μl PBS containing 300 μg/ml of RNase (Sigma, MO, USA). After incubation at 37 ℃ for 30 min, the pellets were stained with 100 μg/ml of propidium iodine (Sigma, MO, USA) for 20 min. Cell cycle distribution was determined by flow cytometry (FACScaliber, Becton Dickinson).

[1] = tested on: SUM-159PT, MCF7 and MDA-MB-231 mammospheres; assay: Mammosphere formation assay; assay type: cell-based, human; settings: treated 5 days
Experimental: Fig. 4 B591 inhibits CSCs and tumorigenesis. a B591 inhibited mammosphere-formation of SUM-159PT, MCF7, and MDA-MB-231 cells. Mammospheres were cultured as described in Materials and methods section. […] The mammospheres were subsequently passaged for another two generations and each generation of the mammospheres were cultured for 5 days without B591 and then counted under a phase-contrast microscopy. The relative mammosphere-formation ability is shown as percentage, and data represent mean ± SD from three independent experiments. c, d Representative flow cytometry plots show the effect of B591 on CD44^high/CD24^low (c) and ALDH^high (d) breast CSCs population from SUM-159PT cells. e Quantification of flow cytometry analysis of CD44^high/CD24^low and ALDH^high breast CSCs population from SUM-159PT cells. […] The live cells were collected and counted, the same amount of control cells and B591-treated cells were then incubated into the fourth left and right mammary fat pad of mice, respectively, according the indicated number for each group. Tumors were inspected 3 months later, and the tumor initiating frequency (TIF) was calculated with ELDA software. […]
In mammosphere formation assay, mammospheres were cultured in the presence of B591 for 5 days as described above and then were counted and imaged under a phase-contrast microscopy (Nikon, Japan).

SUM-159PT cells = assay: Mammosphere formation after paclitaxel pre-treatment; assay type: cell-based; settings: 8 nM Paclitaxel or 8 nM Paclitaxel plus 5 μM B591 for 24 h
Experimental: Fig. 6 B591 reduces breast tumor metastasis and recurrence. a Representative images show the effect of B591 (8 mg/kg) on lung metastasis of 4T1 cells, and data from six mice were plotted. b SUM-159PT cells were respectively treated with the indicated agents (8 nM Paclitaxel, 8 nM Paclitaxel plus 5 μM B591) for 24 h, the cells were then cultured for mammospheres. Representative images were shown, and data from two independent experiments were plotted. c–f SUM-159PT xenografts (n = 7) were treated with 4 mg/kg Paclitaxel, or 10 mg/kg B591, or both for 2 weeks, then ended the treatment and waited for tumor recurrence. Tumor volume (c) and body weight (d) were measured every 2 days after treatment, and tumors were photographed (e) and weighted (f) at the end of the experiment. ^*p < 0.05, ^**p < 0.01 versus indicated groups
Based on the finding that B591 preferentially targets CSCs, we supposed that by eliminating the breast CSCs, B591 might delay breast tumor recurrence after initial treatment with chemotherapy drugs. Paclitaxel is a first-line chemotherapeutic agent used for breast cancer therapy. SUM-159PT cells were pre-treated with paclitaxel, and then the cells remaining alive were cultured for mammospheres.

Cc1cc2c(cc1C)[n+](Cc1ccccc1Br)cn2Cc1ccc2c(c1)CCO2.[Br-] [B591, 3-(2-bromobenzyl)-1-((2,3-dihydrobenzofuran-5-yl)methyl) -5,6-dimethyl-1H-benzo[d]imidazol-3-ium bromide]
Cell cycle distribution (MDA-MB-231 cells): effectively arrested cells in G0/G1 phase
Size and number of primary mammospheres [1]: reduced by B591 in a concentration-dependent manner
Formation of mammospheres / paclitaxel-enriched CSCs (SUM-159PT cells): the paclitaxel-enriched CSCs were effectively eliminated
